# Experimental data from patent US9944645B2, “Imidazotriazines and imidazopyrimidines as kinase inhibitors” (Incyte Holdings Corporation, priority 2006, dated 2018).
# Target: c-Met kinase (h-Met; histidine-tagged c-Met catalytic domain fusion protein) (Homo sapiens (Human), UniProt P08581)
# Experiment: In Vitro c-Met Kinase Enzyme Assays
# Format: biochemical
# Details: phosphorylation of poly Glu-Tyr, 5 μM ATP, 25 minutes at 30° C.
# Description: Compounds were screened in vitro for their ability to inhibit c-Met kinase activity. […] Briefly, histidine-tagged c-Met catalytic domain fusion protein (Invitrogen, #PV3143) was used for the assay. […] The reaction lasted for 25 minutes at 30° C. After the reaction was completed, the contents of the plates was discarded. Plates were then washed with TBS-T (250 μL/well, 5×) and then blocked with TBS-T containing 1% BSA for 2 hours. The contents of the plates was discarded, and 100 μL (per well) of peroxidase-labeled anti-phospho-tyrosine antibody (Sigma, #A5964) diluted (1:60,000) in 1% BSA containing TBS-T were then added and incubated for 1 hour. Plates were washed with TBS-T ([…], 5×) and followed by the color reaction using 100 μL (1:1 mixture) of H2O2 and tetramethylbenzidine (R&D Systems, #DY999). The reaction was stopped in minutes with 100 μL of 2 N H2SO4. The optical density was measured immediately using a microplate reader at 450 nm with wavelength correction at 540 nm. IC50 values were calculated with the GraphPad Prism software. The linear range (i.e., the time period over which the rate remained equivalent to the initial rate) was determined for the kinase and IC50 determinations were performed within this range.
# c-Met kinase (h-Met; histidine-tagged c-Met catalytic domain fusion protein), sequence (P08581 1078-1345): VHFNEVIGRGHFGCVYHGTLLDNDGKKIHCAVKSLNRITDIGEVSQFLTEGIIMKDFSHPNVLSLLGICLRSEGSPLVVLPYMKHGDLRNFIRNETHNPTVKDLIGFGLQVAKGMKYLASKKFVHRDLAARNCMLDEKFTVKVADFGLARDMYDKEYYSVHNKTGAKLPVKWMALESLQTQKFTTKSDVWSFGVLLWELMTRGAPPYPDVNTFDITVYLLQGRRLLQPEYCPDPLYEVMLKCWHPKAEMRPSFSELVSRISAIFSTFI
row,Structure (SMILES),IC50 [nM]
1,"CN(C)C(=O)NCc1ccc(-c2cnc3ncc(C4(c5ccc6ncccc6c5)CC4)n3c2)cc1F [Example 67, N′-2-Fluoro-4-[3-(1-quinolin-6-ylcyclopropyl)imidazo[1,2-a]pyrimidin-6-yl]benzyl-N,N-dimethylurea]",< 500
2,"O[C@@H]1CCN(Cc2ccc(-c3cnc4ncc(C5(c6ccc7ncccc7c6)CC5)n4c3)cc2F)C1 [Example 68, (3R)-1-{2-Fluoro-4-[3-(1-quinolin-6-ylcyclopropyl)imidazo[1,2-a]pyrimidin-6-yl]benzyl}pyrrolidin-3-ol]",< 500
3,"Fc1cc(-c2cnc3ncc(C4(c5ccc6ncccc6c5)CC4)n3c2)ccc1Cn1cccn1 [Example 69, 6-(1-{6-[3-Fluoro-4-(1H-pyrazol-1-ylmethyl)phenyl]imidazo[1,2-a]pyrimidin-3-yl}cyclopropyl)quinoline]",< 500
4,"O=C1OCCN1Cc1ccc(-c2cnc3ncc(C4(c5ccc6ncccc6c5)CC4)n3c2)cc1F [Example 70, 3-{2-Fluoro-4-[3-(1-quinolin-6-ylcyclopropyl)imidazo[1,2-a]pyrimidin-6-yl]benzyl}-1,3-oxazolidin-2-one]",< 500
5,"CNC(=O)c1ccc(-c2cnc3ncc(Cc4ccc5nccnc5c4)n3n2)cc1F [Example 71, 2-Fluoro-N-methyl-4-[7-(quinoxalin-6-ylmethyl)imidazo[1,2-b][1,2,4]triazin-2-yl]benzamide]",< 500
6,"Cc1nc(-c2cnc3ncc(C4(c5ccc6ncccc6c5)CC4)n3c2)cs1 [Example 73, 6-{1-[6-(2-Methyl-1,3-thiazol-4-yl)imidazo[1,2-a]pyrimidin-3-yl]cyclopropyl}quinoline]",< 500
7,"c1cnc2ccc(C3(c4cnc5ncc(-c6cscn6)cn45)CC3)cc2c1 [Example 74, 6-{1-[6-(1,3-Thiazol-4-yl)imidazo[1,2-a]pyrimidin-3-yl]cyclopropyl}quinoline]",< 500
8,"CNC(=O)c1ccc(-c2cnc3ncc(C4(c5ccc6ncccc6c5)CC4)n3c2)c(F)c1 [Example 75, 3-Fluoro-N-methyl-4-[3-(1-quinolin-6-ylcyclopropyl)imidazo[1,2-a]pyrimidin-6-yl]benzamide]",< 500
9,"O=C(c1ccc(-c2cnc3ncc(C4(c5ccc6ncccc6c5)CC4)n3c2)c(F)c1)N1CC[C@H](O)C1 [Example 76, (3S)-1-{3-Fluoro-4-[3-(1-quinolin-6-ylcyclopropyl)imidazo[1,2-a]pyrimidin-6-yl]benzoyl}pyrrolidin-3-ol]",< 500
10,"CNC(=O)c1cc(F)c(-c2cnc3ncc(C4(c5ccc6ncccc6c5)CC4)n3c2)cc1F [Example 77, 2,5-Difluoro-N-methyl-4-[3-(1-quinolin-6-ylcyclopropyl)imidazo[1,2-a]pyrimidin-6-yl]benzamide]",< 500
11,"NC(=O)c1cc(F)c(-c2cnc3ncc(C4(c5ccc6ncccc6c5)CC4)n3c2)cc1F [Example 78, 2,5-Difluoro-4-[3-(1-quinolin-6-ylcyclopropyl)imidazo[1,2-a]pyrimidin-6-yl]benzamide]",< 500
12,"O=C(NC1CC1)c1cc(F)c(-c2cnc3ncc(C4(c5ccc6ncccc6c5)CC4)n3c2)cc1F [Example 79, N-Cyclopropyl-2,5-difluoro-4-[3-(1-quinolin-6-ylcyclopropyl)imidazo[1,2-a]pyrimidin-6-yl]benzamide]",< 500
13,"O=C1CCCN1c1ccc(-c2cnc3ncc(C4(c5ccc6ncccc6c5)CC4)n3c2)cc1F [Example 81, 1-{2-Fluoro-4-[3-(1-quinolin-6-ylcyclopropyl)imidazo[1,2-a]pyrimidin-6-yl]phenyl}pyrrolidin-2-one]",< 2000
14,"O=C1OCCN1c1ccc(-c2cnc3ncc(C4(c5ccc6ncccc6c5)CC4)n3c2)cc1F [Example 82, 3-{2-Fluoro-4-[3-(1-quinolin-6-ylcyclopropyl)imidazo[1,2-a]pyrimidin-6-yl]phenyl}-1,3-oxazolidin-2-one]",< 500

# Results, then the molecule that gave them:
row,IC50 [nM],Structure (SMILES)
1,< 500,"CNC(=O)[C@H](C)NC(=O)c1ccc(-c2cnc3ncc(C4(c5ccc6ncccc6c5)CC4)n3c2)cc1 [Example 50, N-[(1S)-1-Methyl-2-(methylamino)-2-oxoethyl]-4-[3-(1-quinolin-6-ylcyclopropyl)imidazo[1,2-a]pyrimidin-6-yl]benzamide]"
2,< 500,"CNC(=O)[C@@H](C)NC(=O)c1ccc(-c2cnc3ncc(C4(c5ccc6ncccc6c5)CC4)n3c2)cc1 [Example 51, N-[(1R)-1-Methyl-2-(methylamino)-2-oxoethyl]-4-[3-(1-quinolin-6-ylcyclopropyl)imidazo[1,2-a]pyrimidin-6-yl]benzamide]"
3,< 500,"COC(=O)N1CCN(c2ccc(-c3cnc4ncc(C5(c6ccc7ncccc7c6)CC5)n4c3)cn2)CC1 [Example 53, Methyl 4-{5-[3-(1-quinolin-6-ylcyclopropyl)imidazo[1,2-a]pyrimidin-6-yl]pyridin-2-yl}piperazine-1-carboxylate]"
4,< 500,"CS(=O)(=O)N1CCN(c2ccc(-c3cnc4ncc(C5(c6ccc7ncccc7c6)CC5)n4c3)cn2)CC1 [Example 54, 6-[1-(6-{6-[4-(Methylsulfonyl)piperazin-1-yl]pyridin-3-yl}imidazo[1,2-a]pyrimidin-3-yl)cyclopropyl]quinoline]"
5,< 500,"CN(C)C(=O)N1CCN(c2ccc(-c3cnc4ncc(C5(c6ccc7ncccc7c6)CC5)n4c3)cn2)CC1 [Example 55, N,N-Dimethyl-4-{5-[3-(1-quinolin-6-ylcyclopropyl)imidazo[1,2-a]pyrimidin-6-yl]pyridin-2-yl}piperazine-1-carboxamide]"
6,< 500,"CC(C)[C@H](NC(=O)c1ccc(-c2cnc3ncc(C4(c5ccc6ncccc6c5)CC4)n3c2)cc1)C(=O)N(C)C [Example 56, N-(1S)-1-[(Dimethylamino)carbonyl]-2-methylpropyl-4-[3-(1-quinolin-6-ylcyclopropyl)imidazo[1,2-a]pyrimidin-6-yl]benzamide]"
7,< 500,"CN(C)C(=O)C1(NC(=O)c2ccc(-c3cnc4ncc(C5(c6ccc7ncccc7c6)CC5)n4c3)cc2)CCC1 [Example 57, N-1-[(Dimethylamino)carbonyl]cyclobutyl-4-[3-(1-quinolin-6-ylcyclopropyl)imidazo[1,2-a]pyrimidin-6-yl]benzamide]"
8,< 500,"CC(C)(C)[C@H](NC(=O)c1ccc(-c2cnc3ncc(C4(c5ccc6ncccc6c5)CC4)n3c2)cn1)C(=O)N1CCC1 [Example 58, N-[(1S)-1-(Azetidin-1-ylcarbonyl)-2,2-dimethylpropyl]-5-[3-(1-quinolin-6-ylcyclopropyl)imidazo[1,2-a]pyrimidin-6-yl]pyridine-2-carboxamide]"
9,< 500,"CNC(=O)[C@@H](NC(=O)c1ccc(-c2cnc3ncc(C4(c5ccc6ncccc6c5)CC4)n3c2)cn1)C(C)(C)C [Example 59, N-(1S)-2,2-Dimethyl-1-[(methylamino)carbonyl]propyl-5-[3-(1-quinolin-6-ylcyclopropyl)imidazo[1,2-a]pyrimidin-6-yl]pyridine-2-carboxamide]"
10,< 500,"CC(C)(C)[C@H](NC(=O)c1ccc(-c2cnc3ncc(C4(c5ccc6ncccc6c5)CC4)n3c2)cn1)C(=O)NC1CC1 [Example 60, N-(1S)-1-[(Cyclopropylamino)carbonyl]-2,2-dimethylpropyl-5-[3-(1-quinolin-6-ylcyclopropyl)imidazo[1,2-a]pyrimidin-6-yl]pyridine-2-carboxamide]"
11,< 500,"C[C@H](NC(=O)c1ccc(-c2cnc3ncc(C4(c5ccc6ncccc6c5)CC4)n3c2)cn1)C(=O)N(C)C [Example 61, N-[(1S)-2-(Dimethylamino)-1-methyl-2-oxoethyl]-5-[3-(1-quinolin-6-ylcyclopropyl)imidazo[1,2-a]pyrimidin-6-yl]pyridine-2-carboxamide]"
12,< 500,"C[C@@H](NC(=O)c1ccc(-c2cnc3ncc(C4(c5ccc6ncccc6c5)CC4)n3c2)cn1)C(=O)N(C)C [Example 62, N-[(1R)-2-(Dimethylamino)-1-methyl-2-oxoethyl]-5-[3-(1-quinolin-6-ylcyclopropyl)imidazo[1,2-a]pyrimidin-6-yl]pyridine-2-carboxamide]"
13,< 500,"O=C(COc1ccc(-c2cnc3ncc(C4(c5ccc6ncccc6c5)CC4)n3c2)cc1)N1CCCC1 [Example 63, 6-(1-{6-[4-(2-Oxo-2-pyrrolidin-1-ylethoxy)phenyl]imidazo[1,2-a]pyrimidin-3-yl}cyclopropyl)quinoline]"
14,< 500,"N#CC1(c2ccc(-c3cnc4ncc(C5(c6ccc7ncccc7c6)CC5)n4c3)cc2)CC1 [Example 64, 1-{4-[3-(1-Quinolin-6-ylcyclopropyl)imidazo[1,2-a]pyrimidin-6-yl]phenyl}cyclopropanecarbonitrile]"
15,< 500,"CN(C)S(=O)(=O)c1ccc(-c2cnc3ncc(C4(c5ccc6ncccc6c5)CC4)n3c2)cc1 [Example 65, N,N-Dimethyl-4-[3-(1-quinolin-6-ylcyclopropyl)imidazo[1,2-a]pyrimidin-6-yl]benzenesulfonamide]"
16,< 500,"COC(=O)NCc1ccc(-c2cnc3ncc(C4(c5ccc6ncccc6c5)CC4)n3c2)cc1F [Example 66, Methyl 2-fluoro-4-[3-(1-quinolin-6-ylcyclopropyl)imidazo[1,2-a]pyrimidin-6-yl]benzylcarbamate]"
17,< 500,"O=C(N[C@H]1CC[C@H](O)CC1)c1cc(F)c(-c2cnc3ncc(C4(c5ccc6ncccc6c5)CC4)n3c2)cc1F [Example 80, 2,5-Difluoro-N-(trans-4-hydroxycyclohexyl)-4-[3-(1-quinolin-6-ylcyclopropyl)imidazo[1,2-a]pyrimidin-6-yl]benzamide]"
